Entries after “also recorded” stand apart in the source; their conditions may differ.
What was measured:
urease = urease (Canavalia ensiformis, UniProt P07374); conditions: mean ± SEM, triplicate; for IC50: read-out: urease inhibition, IC50
LOX = biological target: T1, LOX (Glycine max, UniProt P08170); assay: Lipoxygenase assay; format: biochemical; conditions: mean ± SEM, triplicate; for IC50: read-out: LOX inhibition, IC50
T1 sequence (P08170 1-839): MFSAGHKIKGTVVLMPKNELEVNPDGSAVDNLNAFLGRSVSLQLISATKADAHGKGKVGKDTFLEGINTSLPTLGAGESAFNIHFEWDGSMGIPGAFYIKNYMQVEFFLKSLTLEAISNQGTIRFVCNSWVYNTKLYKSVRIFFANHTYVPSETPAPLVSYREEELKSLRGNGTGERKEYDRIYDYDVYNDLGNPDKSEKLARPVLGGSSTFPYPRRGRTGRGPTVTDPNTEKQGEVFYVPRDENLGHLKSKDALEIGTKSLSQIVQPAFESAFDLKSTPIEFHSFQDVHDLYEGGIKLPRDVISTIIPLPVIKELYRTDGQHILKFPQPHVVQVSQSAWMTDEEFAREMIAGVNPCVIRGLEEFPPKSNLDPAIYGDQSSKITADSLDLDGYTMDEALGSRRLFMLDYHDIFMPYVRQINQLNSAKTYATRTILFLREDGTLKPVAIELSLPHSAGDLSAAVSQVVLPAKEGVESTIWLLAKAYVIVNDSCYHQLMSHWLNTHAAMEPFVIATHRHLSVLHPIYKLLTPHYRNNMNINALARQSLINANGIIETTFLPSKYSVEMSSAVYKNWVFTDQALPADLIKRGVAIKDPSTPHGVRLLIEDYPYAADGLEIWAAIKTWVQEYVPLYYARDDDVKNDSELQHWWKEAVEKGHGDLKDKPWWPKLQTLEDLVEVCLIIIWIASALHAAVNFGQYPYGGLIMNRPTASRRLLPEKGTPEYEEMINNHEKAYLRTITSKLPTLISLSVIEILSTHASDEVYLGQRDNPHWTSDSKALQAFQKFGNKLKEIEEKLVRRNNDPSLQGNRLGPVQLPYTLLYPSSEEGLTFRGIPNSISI

AChE = AChE (Homo sapiens, UniProt P22303); conditions: for AChE inhibition, inhibition (%) at 0.5 mM / IC50: mean ± SEM, triplicate; for IC50: read-out: AChE inhibition, IC50
Sequence of AChE (P22303 32-614): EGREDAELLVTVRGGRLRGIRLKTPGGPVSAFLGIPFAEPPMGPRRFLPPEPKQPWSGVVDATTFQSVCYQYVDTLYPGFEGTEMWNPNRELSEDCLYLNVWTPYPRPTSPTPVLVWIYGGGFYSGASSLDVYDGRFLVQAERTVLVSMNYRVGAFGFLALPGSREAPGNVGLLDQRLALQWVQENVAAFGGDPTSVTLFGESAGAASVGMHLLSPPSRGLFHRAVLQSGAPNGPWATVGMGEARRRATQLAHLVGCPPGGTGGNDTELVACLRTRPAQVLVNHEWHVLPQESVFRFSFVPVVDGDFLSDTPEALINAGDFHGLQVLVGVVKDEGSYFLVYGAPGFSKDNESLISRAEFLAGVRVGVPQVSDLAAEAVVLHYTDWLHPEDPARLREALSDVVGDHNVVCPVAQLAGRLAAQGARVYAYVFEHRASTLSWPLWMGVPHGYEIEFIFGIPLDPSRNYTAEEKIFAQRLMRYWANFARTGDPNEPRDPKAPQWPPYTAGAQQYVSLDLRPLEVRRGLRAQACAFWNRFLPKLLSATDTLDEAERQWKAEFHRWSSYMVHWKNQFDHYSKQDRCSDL

BChE = BChE (Homo sapiens, UniProt P06276); conditions: mean ± SEM, triplicate; for IC50: read-out: BChE inhibition, IC50
Sequence of BChE (P06276 29-602, species assumed): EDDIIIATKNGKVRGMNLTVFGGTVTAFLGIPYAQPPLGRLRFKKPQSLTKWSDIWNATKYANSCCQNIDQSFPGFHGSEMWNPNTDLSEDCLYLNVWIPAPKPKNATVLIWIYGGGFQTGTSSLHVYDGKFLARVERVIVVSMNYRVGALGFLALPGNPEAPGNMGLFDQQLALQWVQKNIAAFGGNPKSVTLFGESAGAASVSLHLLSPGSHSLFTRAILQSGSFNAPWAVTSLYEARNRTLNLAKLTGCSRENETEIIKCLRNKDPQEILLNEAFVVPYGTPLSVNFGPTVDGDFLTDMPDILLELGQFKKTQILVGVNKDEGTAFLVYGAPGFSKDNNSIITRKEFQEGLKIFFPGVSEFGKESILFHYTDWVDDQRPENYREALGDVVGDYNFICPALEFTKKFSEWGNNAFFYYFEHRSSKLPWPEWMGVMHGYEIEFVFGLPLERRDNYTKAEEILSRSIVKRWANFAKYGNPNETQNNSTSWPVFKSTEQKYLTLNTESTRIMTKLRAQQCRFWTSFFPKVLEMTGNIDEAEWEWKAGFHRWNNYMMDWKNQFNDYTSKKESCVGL

α-glucosidase = α-glucosidase (Saccharomyces cerevisiae, UniProt P53341); assay: α-Glucosidase assay; format: biochemical; conditions: for α-glucosidase inhibition, inhibition (%) at 0.5 mM / IC50: mean ± SEM, triplicate; for IC50: read-out: α-glucosidase inhibition, IC50
Sequence of α-glucosidase (P53341 whole entry): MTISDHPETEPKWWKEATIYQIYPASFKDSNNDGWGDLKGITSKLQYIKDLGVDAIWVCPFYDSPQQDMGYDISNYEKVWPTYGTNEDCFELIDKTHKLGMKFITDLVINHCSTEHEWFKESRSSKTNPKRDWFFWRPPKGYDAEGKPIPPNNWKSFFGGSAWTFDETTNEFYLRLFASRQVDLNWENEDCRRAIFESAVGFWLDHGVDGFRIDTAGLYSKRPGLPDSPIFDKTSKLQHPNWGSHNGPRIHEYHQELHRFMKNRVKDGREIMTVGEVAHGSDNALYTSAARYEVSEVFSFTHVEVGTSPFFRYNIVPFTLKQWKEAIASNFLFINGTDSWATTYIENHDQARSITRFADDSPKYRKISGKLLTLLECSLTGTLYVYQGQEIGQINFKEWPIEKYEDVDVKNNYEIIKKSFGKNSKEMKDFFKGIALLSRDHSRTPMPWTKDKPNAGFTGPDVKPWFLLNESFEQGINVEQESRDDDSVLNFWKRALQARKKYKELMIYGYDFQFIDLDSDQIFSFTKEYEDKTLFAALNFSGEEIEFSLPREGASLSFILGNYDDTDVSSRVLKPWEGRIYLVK

Sequence of urease (P07374 whole entry, looked up): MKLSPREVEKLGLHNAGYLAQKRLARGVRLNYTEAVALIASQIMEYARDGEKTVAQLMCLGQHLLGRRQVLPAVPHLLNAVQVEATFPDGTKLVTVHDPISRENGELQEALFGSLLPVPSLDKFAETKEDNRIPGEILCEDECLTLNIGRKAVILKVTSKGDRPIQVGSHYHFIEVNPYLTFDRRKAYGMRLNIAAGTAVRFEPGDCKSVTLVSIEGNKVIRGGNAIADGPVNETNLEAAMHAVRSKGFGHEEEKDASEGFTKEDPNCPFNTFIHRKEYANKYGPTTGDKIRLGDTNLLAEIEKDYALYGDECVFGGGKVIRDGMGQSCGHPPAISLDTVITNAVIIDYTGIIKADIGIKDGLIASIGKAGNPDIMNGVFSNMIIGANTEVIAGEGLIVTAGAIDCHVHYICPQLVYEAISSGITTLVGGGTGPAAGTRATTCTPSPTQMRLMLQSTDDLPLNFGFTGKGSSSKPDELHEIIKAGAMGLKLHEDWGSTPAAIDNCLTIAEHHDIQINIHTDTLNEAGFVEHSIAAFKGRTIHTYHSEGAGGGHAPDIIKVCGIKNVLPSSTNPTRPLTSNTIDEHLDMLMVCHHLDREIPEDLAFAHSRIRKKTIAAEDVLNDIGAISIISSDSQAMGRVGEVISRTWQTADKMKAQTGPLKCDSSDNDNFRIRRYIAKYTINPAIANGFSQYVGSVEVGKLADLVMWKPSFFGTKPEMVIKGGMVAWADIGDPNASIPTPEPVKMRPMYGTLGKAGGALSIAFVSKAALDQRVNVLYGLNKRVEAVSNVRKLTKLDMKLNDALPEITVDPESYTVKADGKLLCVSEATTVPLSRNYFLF

| Compound | urease inhibition, inhibition (%) at 0.25 mM (urease) | IC50 (urease) | LOX inhibition, inhibition (%) at 0.25 mM (LOX) | IC50 (LOX) | activity against AChE enzyme (in words) (AChE) | AChE inhibition, inhibition (%) at 0.5 mM (AChE) | IC50 (AChE) | BChE inhibition, inhibition (%) at 0.5 mM (BChE) | activity against α-glucosidase enzyme (in words) (α-glucosidase) | α-glucosidase inhibition, inhibition (%) at 0.5 mM (α-glucosidase) | IC50 (α-glucosidase) | IC50 (BChE) |
| --- | --- | --- | --- | --- | --- | --- | --- | --- | --- | --- | --- | --- |
| Cc1ccc(S(=O)(=O)N2CCC(c3nnc(SCC(=O)Nc4cccc(C)c4)n3C)CC2)cc1 [Compound 12d, 1-(4-Toluenesulfonyl)-4-{3-[N-(3-methylphenyl)-2-ethanamoylthio]-4-methyl-4H-1,2,4-triazol-5-yl}{Kumari, 2021 #63} piperidine] | 98.22 ± 1.65% | 19.4 ± 1.28 µM | 68.34 ± 0.82% | 32.6 ± 0.42 µM | excellent activity | 98.78 ± 0.78% | 0.73 ± 0.54 µM | 95.29 ± 0.74% | excellent activity | 91.52 ± 1.43% | 36.7 ± 1.24 µM |  |
| CCOc1ccc(NC(=O)CSc2nnc(C3CCN(S(=O)(=O)c4ccc(C)cc4)CC3)n2C)cc1 [Compound 12h, 1-(4-toluenesulfonyl)-4-{3-[N-(4-ethoxyphenyl)-2-ethanamoylthio]-4-methyl-4H-1,2,4-triazol-5-yl} piperidine] | 42.63 ± 1.52% |  | 63.53 ± 0.52% | 92.45 ± 0.26 µM |  | 37.41 ± 0.62% |  | 16.51 ± 0.35% |  | 73.12 ± 1.58% | 286.6 ± 1.25 µM |  |
| COc1ccccc1NC(=O)CSc1nnc(C2CCN(S(=O)(=O)c3ccc(C)cc3)CC2)n1C [Compound 12g, 1-(4-toluenesulfonyl)-4-{3-[N-(2-methoxyphenyl)-2-ethanamoylthio]-4-methyl-4H-1,2,4-triazol-5-yl} piperidine] | 42.87 ± 1.51% |  | 41.55 ± 0.51% |  |  | 79.24 ± 0.89% | 149.8 ± 0.67 µM | 24.72 ± 0.56% |  | 71.45 ± 1.73% | 267.4 ± 1.52 µM |  |
| Cc1ccc(S(=O)(=O)N2CCC(c3nnc(SCC(=O)Nc4cc(C)ccc4C)n3C)CC2)cc1 [Compound 12k, 1-(4-toluenesulfonyl)-4-{3-[N-(2,5-dimethylphenyl)-2-ethanamoylthio]-4-methyl-4H-1,2,4-triazol-5-yl} piperidine] | 76.15 ± 1.52% | 165.4 ± 1.27 µM | 29.45 ± 0.72% |  |  | 65.27 ± 0.74% | 212.9 ± 0.59 µM | 49.23 ± 0.94% |  | 71.16 ± 1.64% | 385.6 ± 1.32 µM |  |
| Cc1ccc(S(=O)(=O)N2CCC(c3nnc(SCC(=O)Nc4cc(C)cc(C)c4)n3C)CC2)cc1 [Compound 12m, 1-(4-toluenesulfonyl)-4-{3-[N-(3,5-dimethylphenyl)-2-ethanamoylthio]-4-methyl-4H-1,2,4-triazol-5-yl} piperidine] | 98.65 ± 1.67% | 14.3 ± 1.27 µM | 37.45 ± 0.37% |  | excellent activity | 92.73 ± 0.87% | 0.42 ± 0.67 µM | 91.25 ± 0.45% |  | 87.21 ± 1.46% | 142.7 ± 1.23 µM | 0.038 µM |
| CCc1cccc(C)c1NC(=O)CSc1nnc(C2CCN(S(=O)(=O)c3ccc(C)cc3)CC2)n1C [Compound 12n, 1-(4-toluenesulfonyl)-4-{3-[N-(2-ethyl-6-methylphenyl)-2-ethanamoylthio]-4-methyl-4H-1,2,4-triazol-5-yl} piperidine] | 32.85 ± 1.39% |  | 35.65 ± 0.49% |  |  | 61.53 ± 0.65% | 328.1 ± 0.45 µM | 36.24 ± 0.59% | excellent activity; also recorded: most active compound | 92.65 ± 1.64% | 29.4 ± 1.32 µM |  |
| Cc1ccc(S(=O)(=O)N2CCC(c3nnc(SCC(=O)Nc4c(C)cccc4C)n3C)CC2)cc1 [Compound 12l, 1-(4-toluenesulfonyl)-4-{3-[N-(2,6-dimethylphenyl)-2-ethanamoylthio]-4-methyl-4H-1,2,4-triazol-5-yl} piperidine] | 46.19 ± 1.76% |  | 45.29 ± 0.56% |  |  | 62.25 ± 0.86% | 287.7 ± 0.63 µM | 41.87 ± 0.63% |  | 53.67 ± 1.67% | 463.3 ± 1.36 µM |  |
| CCc1ccccc1NC(=O)CSc1nnc(C2CCN(S(=O)(=O)c3ccc(C)cc3)CC2)n1C [Compound 12f, 1-(4-toluenesulfonyl)-4-{3-[N-(2-ethylphenyl)-2-ethanamoylthio]-4-methyl-4H-1,2,4-triazol-5-yl} piperidine] | 36.35 ± 1.78% |  | 62.38 ± 0.75% | 96.32 ± 0.37 µM |  | 39.62 ± 0.55% |  | 39.78 ± 0.57% |  | 74.95 ± 1.74% | 275.8 ± 1.37 µM |  |
| Cc1ccc(NC(=O)CSc2nnc(C3CCN(S(=O)(=O)c4ccc(C)cc4)CC3)n2C)cc1 [Compound 12e, 1-(4-toluenesulfonyl)-4-{3-[N-(4-methylphenyl)-2-ethanamoylthio]-4-methyl-4H-1,2,4-triazol-5-yl} piperidine] | 39.26 ± 1.43% |  | 48.36 ± 0.43% |  | excellent activity | 87.43 ± 0.77% | 97.86 ± 0.65 µM | 96.47 ± 0.76% |  | 72.75 ± 1.58% | 314.6 ± 1.24 µM | 0.053 µM |
| Cc1ccc(S(=O)(=O)N2CCC(c3nnc(SCC(=O)Nc4c(C)cccc4[N+](=O)[O-])n3C)CC2)cc1 [Compound 12o, 1-(4-toluenesulfonyl)-4-{3-[N-(2-methyl-6-nitrophenyl)-2-ethanamoylthio]-4-methyl-4H-1,2,4-triazol-5-yl} piperidine] | 56.35 ± 1.67% | 241.8 ± 0.42 µM | 64.28 ± 0.73% | 93.81 ± 0.34 µM |  | 81.53 ± 0.96% | 129.6 ± 0.73 µM | 39.65 ± 0.42% |  | 72.23 ± 1.51% | 285.6 ± 1.23 µM |  |
| Cc1ccc(S(=O)(=O)N2CCC(c3nnc(SCC(=O)Nc4ccccc4)n3C)CC2)cc1 [Compound 12b, 1-(4-toluenesulfonyl)-4-[3-(N-phenyl-2-ethanamoylthio)-4-methyl-4H-1,2,4-triazol-5-yl] piperidine] | 31.23 ± 1.42% |  | 35.25 ± 0.42% |  | excellent activity | 89.15 ± 0.68% | 85.46 ± 0.45 µM | 63.42 ± 0.75% |  | 76.23 ± 1.58% | 264.3 ± 1.24 µM | 279.4 ± 0.59 µM |
| Cc1ccc(S(=O)(=O)N2CCC(c3nnc(SCC(=O)Nc4ccccc4C)n3C)CC2)cc1 [Compound 12c, 1-(4-toluenesulfonyl)-4-{3-[N-(2-methylphenyl)-2-ethanamoylthio]-4-methyl-4H-1,2,4-triazol-5-yl} piperidine] | 75.45 ± 1.72% | 163.8 ± 1.45 µM | 36.47 ± 0.76% |  |  | 82.36 ± 0.67% | 134.6 ± 0.53 µM | 37.83 ± 0.42% |  | 72.45 ± 1.75% | 327.8 ± 1.57 µM |  |
| Cc1ccc(S(=O)(=O)N2CCC(c3nnc(SCC(=O)Nc4ccc(C)cc4C)n3C)CC2)cc1 [Compound 12j, 1-(4-toluenesulfonyl)-4-{3-[N-(2,4-dimethylphenyl)-2-ethanamoylthio]-4-methyl-4H-1,2,4-triazol-5-yl} piperidine] | 73.52 ± 1.65% | 167.2 ± 1.34 µM | 23.54 ± 0.85% |  | excellent activity | 88.36 ± 0.79% | 94.63 ± 0.57 µM | 37.62 ± 0.87% |  | 72.25 ± 1.85% | 365.9 ± 1.42 µM |  |
